In ChEMBL document CHEMBL1136068 (Bioorg Med Chem Lett, 2003):
Active and inactive are the calls of the source. The rule behind the calls is not given here.

Assays:
[1] = biological target: T1, Androgen receptor (Homo sapiens, UniProt P10275); assay: Antagonist activity against human Androgen receptor; format: functional
T1 sequence (P10275 whole entry): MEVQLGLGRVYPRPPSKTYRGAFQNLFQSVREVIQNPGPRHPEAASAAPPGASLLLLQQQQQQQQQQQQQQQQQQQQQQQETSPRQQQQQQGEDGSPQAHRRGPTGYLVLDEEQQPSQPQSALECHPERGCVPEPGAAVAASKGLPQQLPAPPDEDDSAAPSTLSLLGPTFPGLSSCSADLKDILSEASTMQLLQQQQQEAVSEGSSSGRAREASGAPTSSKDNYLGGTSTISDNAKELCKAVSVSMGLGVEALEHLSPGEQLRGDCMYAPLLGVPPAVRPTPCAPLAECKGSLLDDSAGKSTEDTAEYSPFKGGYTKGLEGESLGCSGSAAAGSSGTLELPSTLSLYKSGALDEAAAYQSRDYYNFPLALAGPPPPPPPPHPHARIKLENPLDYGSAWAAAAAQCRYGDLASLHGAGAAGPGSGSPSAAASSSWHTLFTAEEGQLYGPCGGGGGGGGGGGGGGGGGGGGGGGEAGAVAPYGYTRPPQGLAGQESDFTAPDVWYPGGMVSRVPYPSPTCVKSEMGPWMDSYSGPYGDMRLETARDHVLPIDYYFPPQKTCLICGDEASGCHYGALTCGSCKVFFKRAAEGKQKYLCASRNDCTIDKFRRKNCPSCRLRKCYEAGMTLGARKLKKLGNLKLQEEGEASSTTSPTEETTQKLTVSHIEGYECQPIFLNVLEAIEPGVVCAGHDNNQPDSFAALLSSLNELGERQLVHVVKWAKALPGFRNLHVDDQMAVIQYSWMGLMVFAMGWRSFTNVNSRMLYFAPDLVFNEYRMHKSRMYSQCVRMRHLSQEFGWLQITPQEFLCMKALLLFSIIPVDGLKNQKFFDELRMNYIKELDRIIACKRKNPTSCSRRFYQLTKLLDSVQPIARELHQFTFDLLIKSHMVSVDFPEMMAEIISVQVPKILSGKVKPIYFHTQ

[2] = biological target: T2, Glucocorticoid receptor (Homo sapiens, UniProt P04150); assay: Antagonist activity at glucocorticoid receptor; format: functional
T2 sequence (P04150 whole entry): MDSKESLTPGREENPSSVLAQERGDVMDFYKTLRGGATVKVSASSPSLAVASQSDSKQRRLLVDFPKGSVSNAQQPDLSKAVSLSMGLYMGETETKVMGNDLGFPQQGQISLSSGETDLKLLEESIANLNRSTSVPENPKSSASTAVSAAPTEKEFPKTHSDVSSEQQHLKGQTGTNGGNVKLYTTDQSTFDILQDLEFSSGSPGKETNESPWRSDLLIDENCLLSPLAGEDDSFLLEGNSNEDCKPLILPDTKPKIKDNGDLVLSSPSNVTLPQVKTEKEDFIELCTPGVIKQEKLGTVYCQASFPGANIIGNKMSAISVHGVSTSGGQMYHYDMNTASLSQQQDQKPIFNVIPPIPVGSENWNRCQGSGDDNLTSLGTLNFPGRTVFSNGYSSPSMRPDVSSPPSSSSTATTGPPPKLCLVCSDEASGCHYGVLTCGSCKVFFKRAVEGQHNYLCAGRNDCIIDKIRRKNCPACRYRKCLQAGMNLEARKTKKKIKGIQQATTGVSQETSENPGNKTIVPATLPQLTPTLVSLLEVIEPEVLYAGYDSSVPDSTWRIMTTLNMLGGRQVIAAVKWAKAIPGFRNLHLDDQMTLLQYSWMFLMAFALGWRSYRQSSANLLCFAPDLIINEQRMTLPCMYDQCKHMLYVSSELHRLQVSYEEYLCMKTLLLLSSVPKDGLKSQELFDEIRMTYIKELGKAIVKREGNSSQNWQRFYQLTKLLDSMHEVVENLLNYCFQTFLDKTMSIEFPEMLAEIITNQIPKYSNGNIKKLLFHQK

[3] = biological target: T3, Mineralocorticoid receptor (Homo sapiens, UniProt P08235); assay: Antagonist activity at mineralocorticoid receptor (hMR); format: functional
T3 sequence (P08235 whole entry): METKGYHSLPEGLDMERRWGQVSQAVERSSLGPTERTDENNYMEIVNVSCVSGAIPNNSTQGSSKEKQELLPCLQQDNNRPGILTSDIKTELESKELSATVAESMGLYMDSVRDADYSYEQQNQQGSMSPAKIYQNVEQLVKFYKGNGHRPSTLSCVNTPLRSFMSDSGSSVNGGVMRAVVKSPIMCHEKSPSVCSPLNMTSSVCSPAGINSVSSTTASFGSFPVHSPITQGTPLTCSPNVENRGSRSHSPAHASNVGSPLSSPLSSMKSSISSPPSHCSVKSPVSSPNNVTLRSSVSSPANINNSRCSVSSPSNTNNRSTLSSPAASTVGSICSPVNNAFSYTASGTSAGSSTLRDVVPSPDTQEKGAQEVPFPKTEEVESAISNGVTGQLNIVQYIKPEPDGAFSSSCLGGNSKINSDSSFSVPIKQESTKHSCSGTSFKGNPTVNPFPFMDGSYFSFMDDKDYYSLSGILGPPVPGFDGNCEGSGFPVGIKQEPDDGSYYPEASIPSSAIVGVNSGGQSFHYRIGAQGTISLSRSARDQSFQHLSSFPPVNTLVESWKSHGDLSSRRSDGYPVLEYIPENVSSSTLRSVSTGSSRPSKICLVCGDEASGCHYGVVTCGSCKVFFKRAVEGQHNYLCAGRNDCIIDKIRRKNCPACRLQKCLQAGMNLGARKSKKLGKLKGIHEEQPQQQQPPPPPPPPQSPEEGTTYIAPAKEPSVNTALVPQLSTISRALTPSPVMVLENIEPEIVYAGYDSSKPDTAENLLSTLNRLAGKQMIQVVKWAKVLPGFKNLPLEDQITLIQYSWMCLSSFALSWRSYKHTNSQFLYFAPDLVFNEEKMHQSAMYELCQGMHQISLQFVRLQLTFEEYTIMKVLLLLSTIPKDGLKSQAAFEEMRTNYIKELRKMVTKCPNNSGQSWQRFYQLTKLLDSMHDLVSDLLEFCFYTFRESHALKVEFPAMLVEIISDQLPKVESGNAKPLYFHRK

[4] = biological target: T4, Mineralocorticoid receptor (Homo sapiens) (UniProt P08235); assay: Antagonist efficacy at mineralocorticoid receptor (hMR); format: functional
T4 sequence (whole entry): T3 sequence (P08235 whole entry)

[5] = biological target: T5, Progesterone receptor (Homo sapiens) (UniProt P06401); assay: Agonist efficacy towards human progesterone receptor (hPR) using the cotransfection assay in CV-1 cells; format: functional, cell-based
T5 sequence (whole entry): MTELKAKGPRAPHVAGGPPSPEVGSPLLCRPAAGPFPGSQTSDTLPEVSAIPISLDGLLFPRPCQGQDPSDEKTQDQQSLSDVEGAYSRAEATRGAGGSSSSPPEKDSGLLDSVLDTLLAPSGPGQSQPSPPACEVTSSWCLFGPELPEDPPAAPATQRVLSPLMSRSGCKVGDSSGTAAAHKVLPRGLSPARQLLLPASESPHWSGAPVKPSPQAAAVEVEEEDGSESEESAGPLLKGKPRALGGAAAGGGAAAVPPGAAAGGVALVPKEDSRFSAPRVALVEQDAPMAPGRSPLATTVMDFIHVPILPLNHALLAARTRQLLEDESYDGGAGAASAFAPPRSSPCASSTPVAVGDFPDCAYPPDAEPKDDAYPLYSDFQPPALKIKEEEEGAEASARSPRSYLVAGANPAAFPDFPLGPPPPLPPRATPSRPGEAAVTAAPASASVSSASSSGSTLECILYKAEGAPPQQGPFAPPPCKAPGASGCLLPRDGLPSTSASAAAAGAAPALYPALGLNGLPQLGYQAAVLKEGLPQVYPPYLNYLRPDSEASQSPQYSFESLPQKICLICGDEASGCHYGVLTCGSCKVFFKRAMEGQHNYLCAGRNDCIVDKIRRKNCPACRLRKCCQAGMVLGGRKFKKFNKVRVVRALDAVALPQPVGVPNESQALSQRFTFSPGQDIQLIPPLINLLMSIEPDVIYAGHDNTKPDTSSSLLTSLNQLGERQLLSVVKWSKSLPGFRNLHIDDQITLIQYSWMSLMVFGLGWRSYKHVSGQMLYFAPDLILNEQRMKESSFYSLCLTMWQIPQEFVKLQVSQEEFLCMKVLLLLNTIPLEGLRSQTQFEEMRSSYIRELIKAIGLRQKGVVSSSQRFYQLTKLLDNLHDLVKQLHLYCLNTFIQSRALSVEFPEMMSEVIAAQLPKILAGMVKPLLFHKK

[6] = biological target: T6, Progesterone receptor (Homo sapiens, UniProt P06401); assay: Effective concentration for agonist activity towards human progesterone receptor (hPR) using the cotransfection assay in CV-1 cells; format: functional, cell-based
T6 sequence (P06401 whole entry): T5 sequence (whole entry)

[7] = biological target: T5, Progesterone receptor (Homo sapiens); assay: Antagonistic efficacy towards human progesterone receptor (hPR) using the cotransfection assay in CV-1 cells; Not active; format: functional, cell-based
[8] = biological target: T6, Progesterone receptor; assay: Inhibitory concentration for antagonistic activity towards human progesterone receptor (hPR) using the cotransfection assay in CV-1 cells; Not active; format: functional, cell-based
[9] = biological target: T6, Progesterone receptor; assay: Binding affinity to human progesterone receptor
[10] = biological target: T5, Progesterone receptor (Homo sapiens); assay: Agonist efficacy towards human progesterone receptor (hPR) expressed in CV-1 cells; Not active; format: functional, cell-based
[11] = biological target: T6, Progesterone receptor; assay: Effective concentration for agonist activity towards human progesterone receptor (hPR) expressed in CV-1 cells; Not active; format: functional, cell-based
[12] = biological target: T5, Progesterone receptor (Homo sapiens); assay: Antagonistic efficacy towards human progesterone receptor (hPR) using the cotransfection assay in CV-1 cells; format: functional, cell-based
[13] = biological target: T6, Progesterone receptor; assay: Inhibitory concentration for antagonistic activity towards human progesterone receptor (hPR) using the cotransfection assay in CV-1 cells; format: functional, cell-based
[14] = biological target: T6, Progesterone receptor; assay: Inhibition of antagonist binding to human progesterone receptor (hPR); Not active

| SMILES | IC50 [1] [µM] | IC50 [2] [µM] | IC50 [3] [µM] | Efficacy [4] [%] | Efficacy [5] [%] | EC50 [6] [µM] | Efficacy [7] | IC50 [8] | Ki [9] [µM] | Efficacy [10] | EC50 [11] | Efficacy [12] [%] | IC50 [13] [µM] | IC50 [14] |
| --- | --- | --- | --- | --- | --- | --- | --- | --- | --- | --- | --- | --- | --- | --- |
| CC1=CC(C)(C)Nc2ccc3c(c21)C(=C1SCCCS1)Oc1ccc(F)cc1-3 | 0.18 | 0.146 | 0.681 | 92 | 151 | 0.0021 | inactive | Not Active |  |  |  |  |  |  |
| C=C1Oc2ccc(F)cc2-c2ccc3c(c21)C(C)=CC(C)(C)N3 |  |  |  |  | 87 | 1 | inactive | Not Active | 0.0061 |  |  |  |  |  |
| CC(=O)/C=C1\Oc2ccc(F)cc2-c2ccc3c(c21)C(C)=CC(C)(C)N3 |  |  |  |  |  |  |  |  | > 0.1 | inactive | Not Active | 91 | 0.124 |  |
| CC1=CC(C)(C)Nc2ccc3c(c21)/C(=C/C1CCCCC1)Oc1ccc(F)cc1-3 |  |  |  |  | 28 | 0.048 |  |  | > 0.1 |  |  | 70 | 0.8 |  |
| CC1=CC(C)(C)Nc2ccc3c(c21)/C(=C/c1ccccc1C)Oc1ccccc1-3 |  |  |  |  |  |  | inactive | Not Active |  |  |  |  |  |  |
| CCC/C=C1\Oc2ccc(F)cc2-c2ccc3c(c21)C(C)=CC(C)(C)N3 |  |  |  |  | 90 | 0.028 | inactive |  | 0.0031 |  |  |  |  | Not Active |
| CC1=CC(C)(C)Nc2ccc3c(c21)/C(=C/C#N)Oc1ccc(F)cc1-3 |  |  |  |  | 70 | 2.7 |  |  | 0.045 |  |  | 75 | 0.065 |  |
| C=C(/C=C1\Oc2ccc(F)cc2-c2ccc3c(c21)C(C)=CC(C)(C)N3)C(C)C |  |  |  |  | 122 | 0.029 | inactive | Not Active | 0.026 |  |  |  |  |  |
| CC1=CC(C)(C)Nc2ccc3c(c21)/C(=C/C=O)Oc1ccc(F)cc1-3 |  |  |  |  |  |  |  |  | > 0.1 | inactive | Not Active | 97 | 0.243 |  |
| CC/C(C)=C1/Oc2ccc(F)cc2-c2ccc3c(c21)C(C)=CC(C)(C)N3 |  |  |  |  | 64 | 0.027 |  |  | 0.0167 |  |  | 38 | 0.98 |  |
| CC1=CC(C)(C)Nc2ccc3c(c21)C(=C(c1ccccc1)c1ccccc1)Oc1ccc(F)cc1-3 |  |  |  |  |  |  |  |  | > 0.1 | inactive | Not Active | 90 | 1.93 |  |
